Results: patent publication US9512120B2, “Microbicidally active imidazopyridine derivatives” (Syngenta Participations AG, priority 2013, dated 2016)

Assays:
[1] = test system: Thanatephorus cucumeris (Rhizoctonia solani); assay: Thanatephorus cucumeris (Rhizoctonia solani) / liquid culture (foot rot, damping-off); assay type: cell-based; conditions: PDB, 24° C., 3-4 days after application, read-out: control of Thanatephorus cucumeris (inhibition of growth, photometric)
Method in brief: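 At 200 ppm, compounds in DMSO were combined with fresh liquid-culture mycelia in PDB and kept at 24° C; photometric measurement of growth inhibition after 3-4 days.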

[2] = test system: Monographella nivalis (Microdochium nivale); assay: Monographella nivalis (Microdochium nivale) / liquid culture (foot rot cereals); assay type: cell-based; conditions: PDB, 24° C., 4-5 days after application, read-out: control of Monographella nivalis (inhibition of growth, photometric)
Description: (§1) Monographella nivalis (Microdochium nivale)/Liquid Culture (Foot Rot Cereals): Conidia of the fungus from cryogenic storage were directly mixed into nutrient broth (PDB potato dextrose broth). After placing a DMSO solution of test compound into a 96-well microtiter plate at an application rate of 200 ppm, the nutrient broth containing the fungal spores was added. The test plates were incubated at 24° C. and the inhibition of growth was determined photometrically 4-5 days after application.

[3] = test system: Gaeumannomyces graminis; assay: Gaeumannomyces graminis / liquid culture (take-all of cereals); assay type: cell-based; conditions: PDB, 24° C., 4-5 days after application, read-out: control of Gaeumannomyces graminis (inhibition of growth, photometric)
Description: Gaeumannomyces graminis/Liquid Culture (Take-all of Cereals): Mycelial fragments of the fungus from cryogenic storage were directly mixed into nutrient broth (PDB potato dextrose broth). After placing a DMSO solution of test compound into a 96-well microtiter plate at an application rate of 200 ppm, the nutrient broth […], containing the fungal spores is added. The test plates were incubated at 24° C. and the inhibition of growth was determined photometrically 4-5 days after application.

[4] = test system: Mycosphaerella graminicola (Septoria tritici); assay: Mycosphaerella graminicola (Septoria tritici) / liquid culture (Septoria blotch); assay type: cell-based; conditions: Zymoseptoria tritici, PDB, 24° C., 4-5 days after application, read-out: control of Mycosphaerella graminicola (inhibition of growth, photometric)
Method in brief: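 Growth inhibition was read photometrically after 4–5 days at 24 °C. The test compound was applied at 200 ppm from DMSO solution, then PDB broth seeded with conidia taken straight from cryogenic storage was added.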

[5] = test system: Botryotinia fuckeliana (Botrytis cinerea); assay: Botryotinia fuckeliana (Botrytis cinerea) / liquid culture (gray mould); assay type: cell-based; conditions: Vogels broth, 24° C., 3-4 days after application, read-out: control of Botryotinia fuckeliana (inhibition of growth, photometric)
Description: as §1, with “Botryotinia Fuckeliana (Botrytis cinerea)/Liquid” for “Monographella nivalis (Microdochium nivale)/Liquid”, “(Gray Mould):” for “(Foot Rot Cereals):”, “(Vogels” for “(PDB potato dextrose”, “3-4” for “4-5”

[6] = test system: Puccinia recondita f. sp. Tritici; assay: Puccinia recondita f. sp. tritici / wheat / leaf disc preventative (brown rust); assay type: in vivo; conditions: foliar, wheat leaf segments cv Kanzler, inoculated 1 day after application, assessed 7-9 days after application, read-out: control of Puccinia recondita f. sp. Tritici (percent disease control compared to untreated)
Description: Puccinia recondita f. Sp. Tritici/Wheat/Leaf Disc Preventative (Brown Rust): Wheat leaf segments cultivated variety (cv) Kanzler were placed on agar in 24-well plates and sprayed with formulated test compound diluted in water at an application rate of 200 ppm. The leaf disks were inoculated with a spore suspension of the fungus 1 day after application. The inoculated leaf segments were incubated at 19° C. and 75% relative humidity under a light regime of 12/12 h (light/dark) in a climate cabinet and the activity of a compound was assessed as percent disease control compared to untreated when an appropriate level of disease damage appears in untreated check leaf segments (7-9 days after application).

[7] = test system: Pyrenophora teres; assay: Pyrenophora teres / barley / leaf disc preventative (net blotch); assay type: in vivo; conditions: foliar, barley leaf segments cv Hasso, inoculated two days after application, assessed 5-7 days after application, read-out: control of Pyrenophora teres (disease control compared to untreated)
Method in brief: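 Preventative leaf-disc test: 200 ppm spray, then spore inoculation after two days on barley cv Hasso segments. Incubation 20 °C, 65% relative humidity, 12 h light/12 h dark; efficacy rated against untreated checks at 5-7 days post-application.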

[8] = test system: Glomerella lagenarium (Colletotrichum lagenarium); assay: Glomerella lagenarium (Colletotrichum lagenarium) / liquid culture (anthracnose); assay type: cell-based; conditions: Colletotrichum orbiculare, PDB, 24° C., 3-4 days after application, read-out: control of Glomerella lagenarium (inhibition of growth, photometric)
Description: as §1, with “Glomerella lagenarium (Colletotrichum lagenarium)/Liquid” for “Monographella nivalis (Microdochium nivale)/Liquid”, “(Anthracnose):” for “(Foot Rot Cereals):”, “is measured” for “was determined”, “3-4” for “4-5”

[9] = test system: Sclerotinia sclerotiorum; assay: Sclerotinia sclerotiorum liquid culture (cottony rot / white mold); assay type: cell-based; conditions: PDB, 24° C., 3-4 days after application, read-out: control of Sclerotinia sclerotiorum (inhibition of growth, photometric)
Description: Sclerotinia sclerotiorum (Cottony Rot/White Mold): Mycelia fragments of a newly grown liquid culture of the fungus were directly mixed into nutrient broth (PDB potato dextrose broth). After placing a (DMSO) solution of test compound into a microtiter plate (96-well format) the nutrient broth containing the fungal material was added. The test plates are incubated at 24° C. and the inhibition of growth was determined photometrically 3-4 days after application.

[10] = test system: Phaeosphaeria nodorum (Septoria nodorum); assay: Phaeosphaeria nodorum (Septoria nodorum) / wheat / leaf disc preventative (glume blotch); assay type: in vivo; conditions: Parastagonospora nodorum, foliar, wheat leaf segments cv Kanzler, inoculated 2 days after application, assessed 5-7 days after application, read-out: control of Phaeosphaeria nodorum (percent disease control compared to untreated)
Description: Phaeosphaeria nodorum (Septoria nodorum)/Wheat/Leaf Disc Preventative (Glume Blotch): Wheat leaf segments cv Kanzler were placed on agar in a 24-well plate and sprayed with formulated test compound diluted in water at an application rate of 200 ppm. The leaf disks are inoculated with a spore suspension of the fungus 2 days after application. The inoculated test leaf disks are incubated at 20° C. and 75% relative humidity under a light regime of 12/12 h (light/dark) in a climate cabinet and the activity of a compound is assessed as percent disease control compared to untreated when an appropriate level of disease damage appears in untreated check leaf disks (5-7 days after application).

[11] = test system: Mycosphaerella arachidis (Cercospora arachidicola); assay: Mycosphaerella arachidis (Cercospora arachidicola) / liquid culture (early leaf spot); assay type: cell-based; conditions: PDB, 24° C., 4-5 days after application, read-out: control of Mycosphaerella arachidis (inhibition of growth, photometric)
Description: Mycosphaerella Arachidis (Cercospora arachidicola)/Liquid Culture (Early Leaf Spot): Conidia of the fungus from cryogenic storage were directly mixed into nutrient broth (PDB potato dextrose broth). After placing a DMSO solution of test compound into a 96-well microtiter plate at an application rate of 200 ppm, the nutrient broth containing the fungal spores was added. The test plates are incubated at 24° C. and the inhibition of growth was determined photometrically 4-5 days after application.

melting point | Structure (SMILES) | inhibition at 20 ppm [1] | inhibition at 20 ppm [2] | inhibition at 20 ppm [3] | inhibition at 20 ppm [4] | inhibition at 20 ppm [5] | pest or weed control at 200 ppm [6] | pest or weed control at 200 ppm [7] | inhibition at 20 ppm [8] | inhibition at 20 ppm [9] | pest or weed control at 200 ppm [10] | inhibition at 20 ppm [11]
 | CCn1c(-n2ncnc2N)nc2cncc(-c3cc(Cl)ccc3F)c21 [Compound 91, 2-[7-(5-chloro-2-fluorophenyl)-1-ethylimidazo[4,5-c]pyridin-2-yl]-1,2,4-triazol-3-amine] | ≥ 80% | ≥ 80% | ≥ 80% | ≥ 80% | ≥ 80% | ≥ 80% | ≥ 80% | ≥ 80% | ≥ 80% |  | 
220 to 226 °C | CCn1c(-n2ncnc2N)nc2cncc(C(C)O)c21 (centres unmarked) [Example P8, 1-[2-(5-amino-1,2,4-triazol-1-yl)-1-ethyl-imidazo[4,5-c]pyridin-7-yl]ethanol] |  |  |  |  |  |  |  |  |  |  | 
 | CCCn1c(-n2ncnc2N)nc2cncc(/C(C)=N/OC/C=C\Cl)c21 [Compound 181] | ≥ 80% | ≥ 80% | ≥ 80% | ≥ 80% | ≥ 80% | ≥ 80% | ≥ 80% |  | ≥ 80% |  | 
 | CCn1c(-n2ncnc2N)nc2cncc(/C(C)=N/OC/C=C\Cl)c21 [Compound 171] | ≥ 80% | ≥ 80% | ≥ 80% | ≥ 80% | ≥ 80% |  | ≥ 80% | ≥ 80% | ≥ 80% | ≥ 80% | 
 | C=C(Cl)CO/N=C(\C)c1cncc2nc(-n3ncnc3N)n(CC)c12 [Compound 152] | ≥ 80% |  |  | ≥ 80% |  |  | ≥ 80% | ≥ 80% |  |  | ≥ 80%
 | CCn1c(-n2ncnc2N)nc2cncc(/C(C)=N/OC/C=C/Cl)c21 [Compound 150] | ≥ 80% | ≥ 80% |  | ≥ 80% | ≥ 80% | ≥ 80% | ≥ 80% | ≥ 80% | ≥ 80% |  | 
 | CCCC=Cc1cncc2nc(-n3ncnc3N)n(CC)c12 [Compound 68, 2-(1-ethyl-7-pent-1-enylimidazo[4,5-c]pyridin-2-yl)-1,2,4-triazol-3-amine] | ≥ 80% |  | ≥ 80% | ≥ 80% | ≥ 80% | ≥ 80% | ≥ 80% |  | ≥ 80% | ≥ 80% | ≥ 80%
 | CCCn1c(-n2ncnc2N)nc2cncc(/C(C)=N\OCC=C(C)C)c21 [Compound 188] | ≥ 80% | ≥ 80% | ≥ 80% | ≥ 80% | ≥ 80% | ≥ 80% | ≥ 80% |  | ≥ 80% | ≥ 80% | 
 | CCn1c(-n2ncnc2N)nc2cncc(-c3ccccc3C)c21 [Compound 72, 2-[1-ethyl-7-(2-methylphenyl)imidazo[4,5-c]pyridin-2-yl]-1,2,4-triazol-3-amine] | ≥ 80% |  |  | ≥ 80% | ≥ 80% | ≥ 80% | ≥ 80% |  |  | ≥ 80% | ≥ 80%
 | CCn1c(-n2ncnc2N)nc2cncc(-c3ccc(C(F)(F)F)cc3Cl)c21 [Compound 97] | ≥ 80% | ≥ 80% | ≥ 80% | ≥ 80% | ≥ 80% | ≥ 80% | ≥ 80% | ≥ 80% | ≥ 80% |  | 
 | CCn1c(-n2ncnc2N)nc2cncc(-c3ccc(OC)cc3Cl)c21 [Compound 94, 2-[7-(2-chloro-4-methoxyphenyl)-1-ethylimidazo[4,5-c]pyridin-2-yl]-1,2,4-triazol-3-amine] | ≥ 80% | ≥ 80% | ≥ 80% | ≥ 80% | ≥ 80% | ≥ 80% | ≥ 80% | ≥ 80% | ≥ 80% | ≥ 80% | 
222 to 225 °C | Nc1nc(-c2ccccc2)nn1-c1nc2cnccc2n1C1CCCCC1 [Example P1, 2-(1-cyclohexylimidazo[4,5-c]pyridin-2-yl)-5-phenyl-1,2,4-triazol-3-amine] |  |  |  |  |  |  |  |  |  |  | 
 | CCn1c(-n2ncnc2N)nc2cncc(-c3cc4ccccc4nc3F)c21 [Compound 66, 2-[1-ethyl-7-(2-fluoroquinolin-3-yl)imidazo[4,5-c]pyridin-2-yl]-1,2,4-triazol-3-amine] | ≥ 80% |  | ≥ 80% | ≥ 80% | ≥ 80% |  | ≥ 80% |  | ≥ 80% | ≥ 80% | 
274 to 278 °C | CCn1c(-n2ncnc2N)nc2c(Cl)ncc(-c3ccccc3C)c21 [Example P7, 2-[4-chloro-1-ethyl-7-(o-tolyl)imidazo[4,5-c]pyridin-2-yl]-1,2,4-triazol-3-amine] |  |  |  |  |  |  |  |  |  |  | 
 | CCCON=C(C)c1cncc2nc(-n3ncnc3N)n(CC)c12 [Compound 143] | ≥ 80% |  |  | ≥ 80% | ≥ 80% | ≥ 80% | ≥ 80% | ≥ 80% | ≥ 80% | ≥ 80% | 
